Measurements as given in US20140309265A1, “MACROCYCLIC COMPOUNDS FOR INHIBITION OF INHIBITORS OF APOPTOSIS” (Ensemble Therapeutics, priority 2011, published 2014).

Columns and labels:
[1] = target: T1, His-BIR2-3 (125-356, C202A/C213G, XIAP) (Homo sapiens, UniProt P98170, C202A/C213G); test: XIAP-BIR2-3 Dimeric SMAC Peptide Homogeneous Time Resolved Fluorescence (HTRF) Assay; assay type: binding; settings: XIAP BIR2-3, HTRF, Table 4
T1 construct: additions of His-BIR2-3 (125-356, C202A/C213G, XIAP), fluorescein labeled dimeric SMAC peptide

His-BIR3 (241-356, XIAP) = target: T2, His-BIR3 (241-356, XIAP) (Homo sapiens, UniProt P98170); test: XIAP-BIR3/SMAC Homogeneous Time Resolved Fluorescence (HTRF) Assay; assay type: binding; settings: Table 4
T2 construct: additions of His-BIR3 (241-356, XIAP), fluorescein labeled SMAC peptide
T2 sequence (P98170 241-356): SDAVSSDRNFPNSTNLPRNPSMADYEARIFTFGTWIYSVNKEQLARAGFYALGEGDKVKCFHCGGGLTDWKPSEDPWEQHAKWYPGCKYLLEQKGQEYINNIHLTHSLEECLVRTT

T1 sequence (P98170 125-356 C202A/C213G): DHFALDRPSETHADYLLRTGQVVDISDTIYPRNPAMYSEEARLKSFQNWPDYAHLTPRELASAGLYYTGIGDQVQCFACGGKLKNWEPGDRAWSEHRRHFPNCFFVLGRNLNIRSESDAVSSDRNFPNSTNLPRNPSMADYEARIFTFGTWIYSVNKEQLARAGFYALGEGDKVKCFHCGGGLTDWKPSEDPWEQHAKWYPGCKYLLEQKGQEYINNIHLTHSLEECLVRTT

Compound | IC50 [1] | IC50 (His-BIR3 (241-356, XIAP))
CN[C@@H](C)C(=O)N[C@H](C(=O)N1C[C@@H]2C[C@H]1C(=O)N[C@@H](Cc1ccc3ccccc3c1)C(=O)N[C@H](C(=O)O)Cc1ccc(cc1)OCc1cn(nn1)[C@H]1C[C@@H](C(=O)N[C@@H](Cc3ccc4ccccc4c3)C(=O)N[C@H](C(=O)NS(=O)(=O)CC3CC3)Cc3ccc(cc3)OCc3cn2nn3)N(C(=O)[C@@H](NC(=O)[C@H](C)NC)C(C)(C)C)C1)C(C)(C)C [Compound 1037] | 1 to 10 nM | 10 to 100 nM
CN[C@@H](C)C(=O)N[C@H](C(=O)N1C[C@@H]2C[C@H]1C(=O)N[C@@H](Cc1ccc3ccccc3c1)C(=O)N[C@H](C(=O)O)Cc1ccc(cc1)OCc1cn(nn1)[C@H]1C[C@@H](C(=O)N[C@@H](Cc3ccc4ccccc4c3)C(=O)N[C@H](C(=O)N[C@@H](CC(=O)O)C(=O)N[C@H](CCSC)C(=O)O)Cc3ccc(cc3)OCc3cn2nn3)N(C(=O)[C@@H](NC(=O)[C@H](C)NC)C(C)(C)C)C1)C(C)(C)C [Compound 1038] | > 10 nM | 10 to 100 nM
CN[C@@H](C)C(=O)N[C@H](C(=O)N1C[C@@H]2C[C@H]1C(=O)N[C@@H](Cc1ccc3ccccc3c1)C(=O)N[C@H](C(=O)O)Cc1ccc(cc1)OCc1cn(nn1)[C@H]1C[C@@H](C(=O)N[C@@H](Cc3ccc4ccccc4c3)C(=O)N[C@H](C(=O)NS(=O)(=O)c3ccc4ccccc4c3)Cc3ccc(cc3)OCc3cn2nn3)N(C(=O)[C@@H](NC(=O)[C@H](C)NC)C(C)(C)C)C1)C(C)(C)C [Compound 1039] | 1 to 10 nM | 10 to 100 nM
CN[C@@H](C)C(=O)N[C@H](C(=O)N1C[C@@H]2C[C@H]1C(=O)N[C@@H](Cc1ccc3ccccc3c1)C(=O)N[C@H](C(=O)O)Cc1ccc(cc1)OCc1cn(nn1)[C@H]1C[C@@H](C(=O)N[C@@H](Cc3ccc4ccccc4c3)C(=O)N[C@H](C(=O)NCc3cc(F)c(OC)c(F)c3)Cc3ccc(cc3)OCc3cn2nn3)N(C(=O)[C@@H](NC(=O)[C@H](C)NC)C(C)(C)C)C1)C(C)(C)C [Compound 1040] | > 10 nM | > 100 nM

More lines, now with the values ahead:

IC50 [1] | IC50 (His-BIR3 (241-356, XIAP)) | Compound
1 to 10 nM | 10 to 100 nM | CN[C@@H](C)C(=O)N[C@H](C(=O)N1C[C@@H]2C[C@H]1C(=O)N[C@@H](Cc1ccc3ccccc3c1)C(=O)N[C@H](C(=O)O)Cc1ccc(cc1)OCc1cn(nn1)[C@H]1C[C@@H](C(=O)N[C@@H](Cc3ccc4ccccc4c3)C(=O)N[C@H](C(=O)NCc3cc(F)c(O)c(F)c3)Cc3ccc(cc3)OCc3cn2nn3)N(C(=O)[C@@H](NC(=O)[C@H](C)NC)C(C)(C)C)C1)C(C)(C)C [Compound 1041]
1 to 10 nM | 10 to 100 nM | CN[C@@H](C)C(=O)N[C@H](C(=O)N1C[C@@H]2C[C@H]1C(=O)N[C@@H](Cc1ccc3ccccc3c1)C(=O)N[C@H](C(=O)O)Cc1ccc(cc1)OCc1cn(nn1)[C@H]1C[C@@H](C(=O)N[C@@H](Cc3ccc4ccccc4c3)C(=O)N[C@H](C(=O)NC(CO)CO)Cc3ccc(cc3)OCc3cn2nn3)N(C(=O)[C@@H](NC(=O)[C@H](C)NC)C(C)(C)C)C1)C(C)(C)C [Compound 1042]
1 to 10 nM | 10 to 100 nM | CN[C@@H](C)C(=O)N[C@H](C(=O)N1C[C@@H]2C[C@H]1C(=O)N[C@@H](Cc1ccc3ccccc3c1)C(=O)N[C@H](C(=O)O)Cc1ccc(cc1)OCc1cn(nn1)[C@H]1C[C@@H](C(=O)N[C@@H](Cc3ccc4ccccc4c3)C(=O)N[C@H](c3n[nH]oc3=O)Cc3ccc(cc3)OCc3cn2nn3)N(C(=O)[C@@H](NC(=O)[C@H](C)NC)C(C)(C)C)C1)C(C)(C)C [Compound 1043]
1 to 10 nM | < 10 nM | CN[C@@H](C)C(=O)N[C@H](C(=O)N1C[C@@H]2C[C@H]1C(=O)N[C@@H](Cc1ccc3ccccc3c1)C(=O)N[C@H](C(=O)O)Cc1ccc(cc1)OCc1cn(nn1)[C@H]1C[C@@H](C(=O)N[C@@H](Cc3ccc4ccccc4c3)C(=O)N[C@H](C(=O)NCC[C@@H](O)C[C@@H](O)CC(=O)O)Cc3ccc(cc3)OCc3cn2nn3)N(C(=O)[C@@H](NC(=O)[C@H](C)NC)C(C)(C)C)C1)C(C)(C)C [Compound 1044]
